Experimental data published in PubChem BioAssay (NCI).
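Tested at 5 concentrations; 48 h exposure; 96-well plates; endpoints linearly interpolated, else capped at highest concentration. TGI marks complete inhibition of growth.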

Key:
Experiment in all cases: NCI anticancer screen, dose series, 48 h
786-0 renal = system: 786-0 renal
A498 renal = system: A498 renal
A549 NSCLC = system: A549 NSCLC
ACHN renal = system: ACHN renal
CAKI-1 renal = system: CAKI-1 renal
CCRF-CEM leukemia = system: CCRF-CEM leukemia
COLO 205 colon = system: COLO 205 colon
DU-145 prostate = system: DU-145 prostate
EKVX NSCLC = system: EKVX NSCLC
HCC-2998 colon = system: HCC-2998 colon
HCT-15 colon = system: HCT-15 colon
HL-60(TB) leukemia = system: HL-60(TB) leukemia
HOP-62 NSCLC = system: HOP-62 NSCLC
HOP-92 NSCLC = system: HOP-92 NSCLC
HS 578T breast = system: HS 578T breast
HT29 colon = system: HT29 colon
IGROV1 ovarian = system: IGROV1 ovarian
K-562 leukemia = system: K-562 leukemia
KM12 colon = system: KM12 colon
LOX IMVI melanoma = system: LOX IMVI melanoma
M14 melanoma = system: M14 melanoma
MALME-3M melanoma = system: MALME-3M melanoma
MCF7 breast = system: MCF7 breast
MDA-MB-231 breast = system: MDA-MB-231 breast
MDA-MB-435 = system: MDA-MB-435
MDA-N = system: MDA-N
MOLT-4 leukemia = system: MOLT-4 leukemia
NCI-H226 lung = system: NCI-H226 lung
NCI-H23 lung = system: NCI-H23 lung
NCI-H460 lung = system: NCI-H460 lung
NCI-H522 lung = system: NCI-H522 lung
NCI/ADR-RES ovarian = system: NCI/ADR-RES ovarian
OVCAR-3 ovarian = system: OVCAR-3 ovarian
OVCAR-4 ovarian = system: OVCAR-4 ovarian
OVCAR-5 ovarian = system: OVCAR-5 ovarian
OVCAR-8 ovarian = system: OVCAR-8 ovarian
PC-3 prostate = system: PC-3 prostate
RPMI-8226 leukemia = system: RPMI-8226 leukemia
RXF 393 renal = system: RXF 393 renal
SF-268 CNS = system: SF-268 CNS
SF-295 CNS = system: SF-295 CNS
SF-539 CNS = system: SF-539 CNS
SK-MEL-2 melanoma = system: SK-MEL-2 melanoma
SK-MEL-28 melanoma = system: SK-MEL-28 melanoma
SK-MEL-5 melanoma = system: SK-MEL-5 melanoma
SK-OV-3 ovarian = system: SK-OV-3 ovarian
SNB-19 CNS = system: SNB-19 CNS
SNB-75 CNS = system: SNB-75 CNS
SR leukemia = system: SR leukemia
SW-620 colon = system: SW-620 colon
T-47D breast = system: T-47D breast
TK-10 renal = system: TK-10 renal
U251 CNS = system: U251 CNS
UACC-257 melanoma = system: UACC-257 melanoma
UACC-62 melanoma = system: UACC-62 melanoma
UO-31 renal = system: UO-31 renal
BT-549 breast = system: BT-549 breast
HCT-116 colon = system: HCT-116 colon
SN12C renal = system: SN12C renal

`N#CCN(Cc1ccccc1)[C@@H]1CCC[C@]1(O)C#Cc1ccc2c(c1)OCO2` showed a TGI (786-0 renal) of 29.2 µM, a TGI (A498 renal) of 35.1 µM and a TGI (A549 NSCLC) of 34.1 µM. The TGI (ACHN renal) was 36 µM, the TGI (CAKI-1 renal) was 77.4 µM and the TGI (CCRF-CEM leukemia) was 48.1 µM. The TGI (COLO 205 colon) was 32.3 µM, the TGI (DU-145 prostate) was over 100 µM and the TGI (EKVX NSCLC) was 55.5 µM. For the same compound, the TGI (HCC-2998 colon) was 31.5 µM, the TGI (HCT-15 colon) was 66.7 µM and the TGI (HL-60(TB) leukemia) was 45.1 µM. For the same compound, the TGI (HOP-62 NSCLC) was 30.8 µM, the TGI (HOP-92 NSCLC) was 27 µM and the TGI (HS 578T breast) was 37.2 µM. For the same compound, the TGI (HT29 colon) was 36.1 µM, the TGI (IGROV1 ovarian) was 39.7 µM and the TGI (K-562 leukemia) was 60.4 µM. The TGI (KM12 colon) was 35.4 µM, the TGI (LOX IMVI melanoma) was 30.9 µM and the TGI (M14 melanoma) was 32 µM. For the same compound, the TGI (MALME-3M melanoma) was 34.3 µM, the TGI (MCF7 breast) was 37.9 µM and the TGI (MDA-MB-231 breast) was 36.1 µM. For the same compound, the TGI (MDA-MB-435) was 42.1 µM, the TGI (MDA-N) was 34.2 µM and the TGI (MOLT-4 leukemia) was 57.1 µM. It also gave a TGI (NCI-H226 lung) of 33.6 µM, a TGI (NCI-H23 lung) of 42 µM and a TGI (NCI-H460 lung) of 36.1 µM. The TGI (NCI-H522 lung) was 33.7 µM, the TGI (NCI/ADR-RES ovarian) was 51.8 µM and the TGI (OVCAR-3 ovarian) was 28.9 µM. The TGI (OVCAR-4 ovarian) was 31.2 µM, the TGI (OVCAR-5 ovarian) was 33.5 µM and the TGI (OVCAR-8 ovarian) was 32.2 µM. It also gave a TGI (PC-3 prostate) of 50.7 µM, a TGI (RPMI-8226 leukemia) of 42.2 µM and a TGI (RXF 393 renal) of 30.3 µM. For the same compound, the TGI (SF-268 CNS) was 41.1 µM, the TGI (SF-295 CNS) was 41.8 µM and the TGI (SF-539 CNS) was 42.3 µM. It also gave a TGI (SK-MEL-2 melanoma) of 33.1 µM, a TGI (SK-MEL-28 melanoma) of 33.3 µM and a TGI (SK-MEL-5 melanoma) of 30 µM. It also gave a TGI (SK-OV-3 ovarian) of 90.1 µM, a TGI (SNB-19 CNS) of 41.5 µM and a TGI (SNB-75 CNS) of over 100 µM. It also gave a TGI (SR leukemia) of 40.9 µM, a TGI (SW-620 colon) of 58.6 µM and a TGI (T-47D breast) of 69.5 µM. For the same compound, the TGI (TK-10 renal) was 57.2 µM, the TGI (U251 CNS) was 33.9 µM and the TGI (UACC-257 melanoma) was 37.9 µM. For the same compound, the TGI (UACC-62 melanoma) was 37.3 µM and the TGI (UO-31 renal) was over 100 µM.

With `Cc1cc(C#N)c(Nc2ccccc2[N+](=O)[O-])s1` the TGI (786-0 renal) was over 100 µM, the TGI (A498 renal) was over 100 µM and the TGI (A549 NSCLC) was over 100 µM. The TGI (ACHN renal) was over 100 µM, the TGI (BT-549 breast) was 60.5 µM and the TGI (CAKI-1 renal) was over 100 µM. It also gave a TGI (CCRF-CEM leukemia) of over 100 µM, a TGI (COLO 205 colon) of over 100 µM and a TGI (DU-145 prostate) of 78.8 µM. It also gave a TGI (EKVX NSCLC) of 97.2 µM, a TGI (HCC-2998 colon) of 91.1 µM and a TGI (HCT-116 colon) of over 100 µM. The TGI (HCT-15 colon) was over 100 µM, the TGI (HOP-62 NSCLC) was 90.9 µM and the TGI (HOP-92 NSCLC) was over 100 µM. It also gave a TGI (IGROV1 ovarian) of over 100 µM, a TGI (K-562 leukemia) of over 100 µM and a TGI (KM12 colon) of over 100 µM. For the same compound, the TGI (M14 melanoma) was over 100 µM, the TGI (MCF7 breast) was over 100 µM and the TGI (MDA-MB-231 breast) was 92.4 µM. It also gave a TGI (MDA-MB-435) of 47.5 µM, a TGI (MDA-N) of 30.9 µM and a TGI (MOLT-4 leukemia) of over 100 µM. It also gave a TGI (NCI-H226 lung) of over 100 µM, a TGI (NCI-H23 lung) of over 100 µM and a TGI (NCI-H460 lung) of over 100 µM. The TGI (NCI-H522 lung) was 57.6 µM, the TGI (NCI/ADR-RES ovarian) was 53 µM and the TGI (OVCAR-3 ovarian) was 71.5 µM. For the same compound, the TGI (OVCAR-4 ovarian) was over 100 µM, the TGI (OVCAR-5 ovarian) was 62.9 µM and the TGI (OVCAR-8 ovarian) was over 100 µM. It also gave a TGI (PC-3 prostate) of 73.9 µM, a TGI (RPMI-8226 leukemia) of over 100 µM and a TGI (RXF 393 renal) of 47 µM. It also gave a TGI (SF-268 CNS) of over 100 µM, a TGI (SF-295 CNS) of over 100 µM and a TGI (SF-539 CNS) of over 100 µM. For the same compound, the TGI (SK-MEL-28 melanoma) was over 100 µM, the TGI (SK-OV-3 ovarian) was over 100 µM and the TGI (SN12C renal) was 67.7 µM. For the same compound, the TGI (SNB-19 CNS) was over 100 µM, the TGI (SNB-75 CNS) was over 100 µM and the TGI (SR leukemia) was over 100 µM. It also gave a TGI (SW-620 colon) of over 100 µM, a TGI (T-47D breast) of over 100 µM and a TGI (U251 CNS) of 57.6 µM. For the same compound, the TGI (UACC-257 melanoma) was over 100 µM, the TGI (UACC-62 melanoma) was over 100 µM and the TGI (UO-31 renal) was over 100 µM.
